{
  "source": "patent USRE30241E",
  "about": "“Esters of 3-(hydroxy or hydroxymethyl)-4-hydroxyphenyl aminomethyl ketones” (Sterling Drug Inc., priority 1970, dated 1980)",
  "key": {"[1]": {"tested_on": "carbachol- or histamine-induced bronchoconstriction", "test": "Bronchodilator Test Method I, anesthetized dog, intravenous activity", "format": "in vivo", "details": "Canis lupus familiaris, read-out: Bronchodilatation; for inhibition in vivo at 0.07 mg/kg: 70 mcg/kg i.v.; for inhibition in vivo at 0.14 mg/kg: 140 mcg/kg i.v.; for inhibition in vivo at 0.28 mg/kg: 280 mcg/kg i.v.", "summary_of_the_method": "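Pentobarbital-anesthetized (30 mg/kg i.v.), open-chest, artificially ventilated dogs were given i.v. carbachol (4-6 µg/kg) or histamine diphosphate (35-45 µg/kg). Test compound was given i.v. mixed with, after, or 1-10 min before the constrictor.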"}, "[2]": {"tested_on": "carbachol- or histamine-induced bronchoconstriction", "test": "Bronchodilator Test Method I, anesthetized dog, intraduodenal activity", "format": "in vivo", "details": "Canis lupus familiaris, read-out: Bronchodilation; for inhibition in vivo at 0.07 mg/kg: 70 mcg/kg (salt) intraduodenal; for inhibition in vivo at 0.14 mg/kg: 140 mcg/kg (salt) intraduodenal; for inhibition in vivo at 0.28 mg/kg: 280 mcg/kg (salt) intraduodenal", "summary_of_the_method": "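Pentobarbital-anesthetized (30 mg/kg i.v.) open-chest dogs of 9-18 kg, artificially ventilated; airway pressure recorded via tracheal cannula transducer. Test solution injected intraduodenally; from 5 min, i.v. carbachol (4-6 μg/kg) or histamine diphosphate (35-45 μg/kg) challenges every 30-60 min gauged degree and duration of bronchodilation.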"}, "[3]": {"tested_on": "guinea pig bronchioles constricted by carbachol", "test": "Bronchodilator Test Method II, in vitro perfused guinea pig lung", "experimental": "In this method bronchodilator activity in vitro was determined by testing the effect of graded doses of the test compounds on guinea pig bronchioles constricted by carbachol, using the technique reported by Sollman and von Oettingen, Proc. Soc, Exp. Biol. Med., 25,692 (1928) as modified by Tainter, Pedden, and James, J. Pharm. Exp. Ther., 51, 371 (1934) and by Luduena, von Euler, Tullar, and Lands, Arch. intern. Pharmacol., III, 392 (1957)."}, "[4]": {"tested_on": "heart rate", "test": "Cardiovascular studies: effect on the heart rate in the anesthetized dog", "format": "in vivo", "summary_of_the_method": "(§1)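 Anesthetized dogs, mostly spontaneously breathing, some open-chest, given rapid intravenous injections. Heart rate by electrocardiograph with blood pressure recorded simultaneously, every 0.5-1 minute for 10 minutes then every 2-5 minutes until recovery; several doses or compounds sometimes tested alternately in one dog.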"}, "[5]": {"tested_on": "diastolic blood pressure", "test": "Effect on diastolic blood pressure in the anesthetized dog", "format": "in vivo", "summary_of_the_method": "as §1"}, "[6]": {"test": "Solubility and pH of salts", "details": "dimethyl sulfoxide, organic solvent or mixture"}},
  "data": [
    {"smiles": "Cc1ccc(C(=O)Oc2ccc(C(O)CNC(C)(C)C)cc2OC(=O)c2ccc(C)cc2)cc1", "note": "(stereo not drawn) [Example 30, 3,4-bis(p-toluyloxy)-alpha-(tert-butylaminomethyl)benzyl alcohol methanesulfonate]", "values": [
      {"measurement": "inhibition in vivo at 0.07 mg/kg", "setting": "[1]; 5 min, 5 min", "result": 54, "unit": "%"},
      {"measurement": "inhibition in vivo at 0.14 mg/kg", "setting": "[1]; 5 min, 5 min", "result": 65, "unit": "%"},
      {"measurement": "inhibition in vivo at 0.28 mg/kg", "setting": "[1]; 5 min, 5 min", "result": 83, "unit": "%"},
      {"measurement": "inhibition in vivo at 0.07 mg/kg", "setting": "[1]; 0.5 h, 30 min", "result": 63, "unit": "%"},
      {"measurement": "inhibition in vivo at 0.14 mg/kg", "setting": "[1]; 0.5 h, 30 min", "result": 76, "unit": "%"},
      {"measurement": "inhibition in vivo at 0.28 mg/kg", "setting": "[1]; 0.5 h, 30 min", "result": 88, "unit": "%"},
      {"measurement": "inhibition in vivo at 0.07 mg/kg", "setting": "[1]; 1 h, 60 min", "result": 61, "unit": "%"},
      {"measurement": "inhibition in vivo at 0.14 mg/kg", "setting": "[1]; 1 h, 60 min", "result": 69, "unit": "%"},
      {"measurement": "inhibition in vivo at 0.28 mg/kg", "setting": "[1]; 1 h, 60 min", "result": 75, "unit": "%"},
      {"measurement": "inhibition in vivo at 0.07 mg/kg", "setting": "[1]; 2 h, 120 min", "result": 52, "unit": "%"},
      {"measurement": "inhibition in vivo at 0.14 mg/kg", "setting": "[1]; 2 h, 120 min", "result": 55, "unit": "%"},
      {"measurement": "inhibition in vivo at 0.28 mg/kg", "setting": "[1]; 2 h, 120 min", "result": 72, "unit": "%"},
      {"measurement": "inhibition in vivo at 0.14 mg/kg", "setting": "[1]; 3 h, 180 min", "result": 62, "unit": "%"},
      {"measurement": "inhibition in vivo at 0.28 mg/kg", "setting": "[1]; 3 h, 180 min", "result": 64, "unit": "%"},
      {"measurement": "inhibition in vivo at 0.07 mg/kg", "setting": "[1]; 4 h, 240 min", "result": 37, "unit": "%"},
      {"measurement": "inhibition in vivo at 0.28 mg/kg", "setting": "[1]; 4 h, 240 min", "result": 50, "unit": "%"},
      {"measurement": "inhibition in vivo at 0.14 mg/kg", "setting": "[1]; 4.5 h, 270 min", "result": 42, "unit": "%"},
      {"measurement": "inhibition in vivo at 0.07 mg/kg", "setting": "[2]; 10 min, 10 min, mean of 3 dogs", "result": 38, "unit": "%"},
      {"measurement": "inhibition in vivo at 0.14 mg/kg", "setting": "[2]; 10 min, 10 min", "result": 30, "unit": "%"},
      {"measurement": "inhibition in vivo at 0.28 mg/kg", "setting": "[2]; 10 min, 10 min", "result": 75, "unit": "%"},
      {"measurement": "inhibition in vivo at 0.07 mg/kg", "setting": "[2]; 0.5 h, 30 min", "result": 45, "unit": "%"},
      {"measurement": "inhibition in vivo at 0.14 mg/kg", "setting": "[2]; 0.5 h, 30 min", "result": 35, "unit": "%"},
      {"measurement": "inhibition in vivo at 0.28 mg/kg", "setting": "[2]; 0.5 h, 30 min", "result": 71, "unit": "%"},
      {"measurement": "inhibition in vivo at 0.07 mg/kg", "setting": "[2]; 1 h, 60 min", "result": 42, "unit": "%"},
      {"measurement": "inhibition in vivo at 0.14 mg/kg", "setting": "[2]; 1 h, 60 min", "result": 36, "unit": "%"},
      {"measurement": "inhibition in vivo at 0.28 mg/kg", "setting": "[2]; 1 h, 60 min, mean of 3 dogs", "result": 64, "unit": "%"},
      {"measurement": "inhibition in vivo at 0.07 mg/kg", "setting": "[2]; 2 h, 120 min, mean of 3 dogs", "result": 42, "unit": "%"},
      {"measurement": "inhibition in vivo at 0.14 mg/kg", "setting": "[2]; 2 h, 120 min", "result": 45, "unit": "%"},
      {"measurement": "inhibition in vivo at 0.28 mg/kg", "setting": "[2]; 2 h, 120 min", "result": 56, "unit": "%"},
      {"measurement": "inhibition in vivo at 0.07 mg/kg", "setting": "[2]; 3 h, 180 min", "result": 42, "unit": "%"},
      {"measurement": "inhibition in vivo at 0.14 mg/kg", "setting": "[2]; 3 h, 180 min", "result": 40, "unit": "%"},
      {"measurement": "inhibition in vivo at 0.28 mg/kg", "setting": "[2]; 3 h, 180 min", "result": 50, "unit": "%"},
      {"measurement": "inhibition in vivo at 0.07 mg/kg", "setting": "[2]; 4 h, 240 min, mean of 3 dogs", "result": 25, "unit": "%"},
      {"measurement": "inhibition in vivo at 0.14 mg/kg", "setting": "[2]; 4 h, 240 min", "result": 47, "unit": "%"},
      {"measurement": "inhibition in vivo at 0.28 mg/kg", "setting": "[2]; 4 h, 240 min, mean of 3 dogs", "result": 45, "unit": "%"},
      {"measurement": "inhibition in vivo at 0.28 mg/kg", "setting": "[2]; 5 h, 300 min, mean of 3 dogs", "result": 37, "unit": "%"},
      {"measurement": "ED50", "setting": "[3]; carbachol (Doryl) 1:5 million", "result": "3.2 µg (base)"},
      {"measurement": "Duration, Mean", "setting": "[3]; dose 10 mcg (base)", "result": "60 ± 9.6", "unit": "min"},
      {"measurement": "Mean Maximal Increase in the Heart Rate", "setting": "[4]; 70 mcg/kg (salt) i.v.", "result": 9, "unit": "%"},
      {"measurement": "Mean Maximal Increase in the Heart Rate", "setting": "[4]; 140 mcg/kg (salt) i.v.", "result": 15, "unit": "%"},
      {"measurement": "Mean Maximal Increase in the Heart Rate", "setting": "[4]; 280 mcg/kg (salt) i.v.", "result": 28, "unit": "%"},
      {"measurement": "Mean Decrease in Diastolic Blood Pressure", "setting": "[5]; 70 meg/kg (salt) i.v.", "result": 2, "unit": "%"},
      {"measurement": "Mean Decrease in Diastolic Blood Pressure", "setting": "[5]; 140 meg/kg (salt) i.v.", "result": 11, "unit": "%"},
      {"measurement": "Mean Decrease in Diastolic Blood Pressure", "setting": "[5]; 280 meg/kg (salt) i.v.", "result": 11.5, "unit": "%"},
      {"measurement": "solubility", "setting": "[6]", "result": "≥ 10000", "unit": "µg/mL"}
    ]}
  ]
}
